Data as given in US7416744B2, “Extracts, compounds and pharmaceutical compositions having anti-diabetic activity and their use” (priority 2000, dated 2008).

Experiments:
male ZDF rats [1] = experiment: Chronic study: blood glucose concentration in fed rats; assay type: in vivo, rat
Protocol: (§1) After a wash-out of 9 days after the acute dose, the rats were retained in the same treatment groups for the chronic study. […] For the pair-feeding, rats were individually matched. Pair-fed rats together with controls were dosed with water daily. Rats were dosed daily at ca 9.30 AM. The initial doses were 120 mg/kg (high dose) and 60 mg/kg (low dose).
(§2) Chronic Study—The compound (1) was made up in water. Animals were dosed at the appropriate rate daily by oral gavage. Control animals received water alone at the rate of 1 ml/kg. Doses were administered at ca 10 AM each day for a total of 30 days.
(§3) On Day 7 of the dosing procedure the dose levels of groups B & D were reduced to 60 mg/kg and 30 mg/kg due to concerns over that food intake suppression might be too great. The dosing procedure remained the same and animals were dosed for a further 23 days (30 days dosing in total).
(§4) For measurement of blood glucose levels, a 20 μl sample of blood was taken from the tail vein whilst animals were in a fed state. A further 100 μl sample of blood was taken and the plasma separated by centrifugation (5000 rpm, 5 minutes). Plasma samples were then analysed for insulin and leptin using rat insulin or leptin ELISA kits (Crystal Chem Inc, PO Box 60225, Chicago, Ill. 60660, USA). Blood glucose, insulin and leptin levels were determined at approximately weekly intervals.

male ZDF rats [2] = experiment: Chronic study: blood glucose concentration in fasted rats; assay type: in vivo, rat; settings: 5 h fast
Protocol: as §1, §2, §3, §4
Fasted glucose, insulin and leptin levels were determined in an identical manner but animals were fasted for 5 hours prior to samples being taken.

male ZDF rats [3] = experiment: Chronic study: water intake; assay type: in vivo, rat
Protocol: as §1
(§5) Food and water intake were measured daily. Bodyweights were measured twice weekly. Blood samples were taken for determination of glucose, insulin and leptin. Oral glucose tolerance was also measured.
as §2, §3
(§6) Daily food and water intake of each rat was measured by weight. Any spilled food was also collected and weighed so that an accurate estimate of food consumption could be made.
(§7) In order to determine the potential long-term effects of The compound (1), the measurement of food and water intake were continued following withdrawal of treatment.

male ZDF rats [4] = experiment: Chronic study: oral glucose tolerance test (OGTT); assay type: in vivo, rat; settings: day 9, oral 2 g/kg glucose load
Protocol: Oral glucose tolerance was measured at 9 days following treatment (chronic study). Animals were fasted for 5 hours prior to the start of the OGTT. Animals were treated with glucose diluted in water at a rate of 2 g/kg ([…]). Blood samples were taken at 0, 30, 60 90 and 120 minutes. Glucose concentrations were determined by mixing blood samples with 0.38 ml of haemolysis reagent. A duplicate 20 μl aliquots of this mixture was taken for each individual sample and placed in an assay tray. To each well was added 180 μl aliquots of Trinders glucose reagent. The samples were mixed and then left for approximately 30 minutes. Samples were then analysed automatically using a SpectraMax 250 and SoftMax Pro software (Molecular devices Corporation, 1311 Orleans Drive, Sunnyvale, Calif. 94089, USA). The results were converted into glucose concentration values using Prism software, version 3.0 (GraphPad Software Inc, San Diego, Calif. USA)
The OGTT was repeated after 30 days treatment. The procedure was identical except that the pair-fed rats were each given 6 g of food at 7 AM with food being withdrawn at 9 AM for 5 hours.
Blood samples for insulin were obtained at 30 minutes prior to and 60 minutes post glucose load.
Oral glucose tolerance was determined after 8 days and after 29 days of treatment, i.e. on day 9 and day 30. Rats were fasted for 5 hours prior to receiving an oral 2 g/kg glucose load.

normal rats = settings: administered orally; previously shown; cited from earlier work
male ZDF rats [5] = experiment: Acute study: single oral dose, dose-response, food intake; assay type: in vivo, rat
Excerpt: (§8) The animals used for this study were 30 male ZDF rats and 6 male lean ZDF rats obtained from Gmi (Indianapolis, Ind., USA). The rats arrived at 6 weeks of age. The acute study was undertaken when the rats were 7 weeks old and the chronic study started when the rats were 9 weeks old.
This was a single dose, dose-response study in ZDF rats. The 30 ZDF rats were allocated to one of 5 groups so that there were 6 rats in each group. In addition there were 6 untreated lean ZDF rats. All of the rats were housed individually. The acute dose of the compound as given by oral gavage at 9.30 AM. Control ZDF and lean rats received water. Food intake was measured over the periods 9.30-16.00 (daytime) and 16.00-9.30 (night-time) for 48 hours.
Six days prior to the single dose administration the rats were allocated to individual cages and were provided with food and water ad libitum. Four days prior to dose administration, 50 g of food was placed in each cage. Then two days prior to dose administration at ca 9.30 and 16.00 hours the food remaining was weighed and replaced with a further 50 g.
Acute Study—The compound (1) was made up in water. Animals were administered with a single oral dose of The compound (1) at the appropriate rate. Control animals received water alone at the rate of 1 ml/kg. The compound (1) was administered at ca 9.30 AM.
as §6

male ZDF rats [6] = experiment: Chronic study: bodyweight; assay type: in vivo, rat
Protocol: as §1, §5, §2, §3
The bodyweight of each rat was measured twice weekly throughout the course of the study.

male ZDF rats [7] = experiment: Chronic study: daily oral dosing, food intake (incl. regression after withdrawal); assay type: in vivo, rat
Excerpt: as §8, §1, §5, §2, §3, §6, §7

[8] = 120 mg/kg and 60 mg/kg daily oral

## C/C=C(\C)C(=O)O[C@@H]1CC2C(CC=C3C[C@@H](OC4CC(OC)C(OC5CC(OC)C(OC6OC(C)C(O)C(OC)C6O)C(C)O5)C(C)O4)CC[C@@]32C)[C@@]2(O)CC[C@H](C(C)=O)[C@@]12C (stereo partly drawn) [compound (1), 3-0-[-β-D-thevetopyranosyl-(1-4)-β-D-cymaropyranosyl-(1-4)-β-D-cymaropyranosyl]-12β-0-tigloyloxy-14-hydroxy-14β-pregn-50-en-20-one]
Male ZDF rats [1]; ZDF male rats
  treatment of established diabetes, overall conclusion: effective treatment
Male ZDF rats [1]; after 7 days of treatment
  blood glucose concentration in fed rats: reduction in the blood glucose concentration from the diabetic level to a similar concentration as in lean littermates
Male ZDF rats [1]; after withdrawal
  blood glucose concentration in fed rats after withdrawal of therapy: steadily increased
Male ZDF rats [1]; chronic study, overall
  glycaemic status (plasma glucose, glucose tolerance, water intake): substantial improvements in glycaemic status
Male ZDF rats [1]; until withdrawal of therapy
  glycaemia in fed rats during therapy: Normal glycaemia was maintained
Male ZDF rats [2]; after 8 days treatment
  fasted blood glucose concentration versus ZDF controls: significantly lower
  fasted blood glucose concentration versus lean rats: did not differ significantly
Male ZDF rats [2]; after 29 days treatment
  fasted blood glucose concentration versus ZDF controls: significantly lower
  fasted blood glucose concentration versus lean rats: did not differ significantly
Male ZDF rats [3]; after 30 days treatment, previously treated rats
  water intake after withdrawal of the treatment: rose slightly
Male ZDF rats [3]; after end of chronic dosing
  time after withdrawal before blood glucose concentration and water intake approached that of the diabetic controls: approximately 2 weeks
Male ZDF rats [3]; after withdrawal, versus untreated controls
  diabetic state by water intake after 66 days: not as diabetic as the untreated controls
Male ZDF rats [3]; high dose (120 or 60 mg/kg/day) or low dose (60 or 30 mg/kg/day), maintained throughout dosing
  time for water intake to be reduced to the level in the lean controls: ≤ 4 days
Male ZDF rats [4]
  oral glucose tolerance: only marginally impaired relative to lean
Normal rats
  food intake in normal rats: reduce food intake
Male ZDF rats [5]; 20-160 mg/kg, daytime and night-time
  food intake for the period 24-48 hours past a single oral dose: reduced (both daytime and night-time) in a dose-related manner
Male ZDF rats [5]; single oral dose 80 mg/kg
  food intake in the second day (significance): significant
Male ZDF rats [5]; single oral dose 160 mg/kg
  food intake in the second day (significance): significant
  night-time food intake compared with lean rats: the same as the lean rats
Male ZDF rats [5]; single oral dose 160 mg/kg (only dose significant)
  food intake in the first 24 hours (significance): Significant reduction
Male ZDF rats [5]; single oral dose given at 09.30
  onset of effect on food intake: slow in onset
Male ZDF rats [5]; single oral dose, dose range 20-160 mg/kg
  daytime food intake over the 7 hour period post-dosing: no significant effect
Male ZDF rats [5]; single oral dose, dose range 20-160 mg/kg, first night
  night-time food intake: dose-related reduction
Male ZDF rats [5]; single oral dose, effects seen during second day
  duration of response to a single dose: long
Male ZDF rats [6]; chronic dosing
  growth rate after 14 days: higher growth rate than the control ZDF rats
Male ZDF rats [6]; chronic dosing, both doses
  growth rate over the first 3 weeks of treatment relative to ZDF controls: dose-related decrease in the growth rate
Male ZDF rats [6]; chronic study, ZDF controls plateaued at 360-370 g
  bodyweight plateau level: more than 400 g
Male ZDF rats [6]; high dose (120 then 60 mg/kg)
  bodyweight by the end of the treatment period versus ZDF controls: the same weight
Male ZDF rats [6]; low dose (60 then 30 mg/kg)
  bodyweight by the end of the treatment period versus ZDF controls: heavier than the controls
Male ZDF rats [6]; previously treated rats
  body weight about 2 weeks after withdrawal versus ZDF controls: significantly greater
Male ZDF rats [7]; [8]
  daytime food intake over the first 7 days: increasing effect
  time until full effect on night-time food intake apparent: 2 days
Male ZDF rats [7]; ZDF male rats
  appetite suppression, overall conclusion: powerful appetite suppressant
Male ZDF rats [7]; after dose reduction to 60 and 30 mg/kg
  effectiveness on food intake reduction over the period 7-14 days: small reduction in the effectiveness
Male ZDF rats [7]; after end of chronic dosing
  rebound hyperphagia on withdrawal of the drug: did not lead to a rebound hyperphagia
Male ZDF rats [7]; both dose levels (120 and 60 mg/kg daily oral)
  reduction in food intake after 7 days: around 50%
Male ZDF rats [7]; both groups, 60 and 30 mg/kg
  food intake after 14 days: stabilised
Male ZDF rats [7]; chronic dosing
  pharmacological tolerance to food intake reduction: no indication of tolerance
Male ZDF rats [7]; chronic dosing, overall
  food intake over the treatment period: marked reduction
Male ZDF rats [7]; monitored for a further 17 days after withdrawal
  food intake after withdrawal of drug treatment, relative to control ZDF rats: only a small loss of efficacy
